Reference: patent US10308631B2, “Selective anti-cancer compounds” (NATIONAL UNIVERSITY OF SINGAPORE, priority 2015, dated 2019)

Assays:
[1] = test system: cleaved PARP and caspase-3 in oncogene-transformed human fibroblast BJ cells; assay: Immunoblot of cleaved PARP and cleaved caspase-3; format: cell-based; settings: 2.5 and 5 μM, 48 h
Description: FIGS. 5B, C provide a representation of an immunoblot analysis to examine the PARP or caspase-3 cleavage (B) and a histogram showing Caspase-3/7 activities, plotted as fold induction compared to DMSO-treated cells (C). BJ normal and transformed cells were treated with Compound 1 (a131) for 48 h. Cells were harvested and total lysates were analysed by detecting cleaved PARP or caspase-3 or caspase-3/7 activities as markers for apoptotic induction. […] Student's t-test was performed to determine the statistical significance (**=p<0.001, ***=p<0.0001, n.s.=no significance).
Whether Compound 1 (a131)-induced cancer cell-lethality was mediated by apoptosis or non-apoptotic programmed cell death was determined. For this purpose, isogenic non-transformed and oncogene-transformed human fibroblast BJ cell lines were cultured in DMEM supplemented with 10% FBS. The cells were treated with Compound 1 (2.5 μM and 5 μM, DMSO). 48 h after treatment, total cell lysates were prepared for immunoblot analysis using antibodies against cleaved PARP and cleaved caspase-3, well-known markers for apoptosis. In addition, a fraction of total cell lysates was also subjected to Caspase-3/7 Glo (Promega) assay to measure the combined activity of caspase 3/7. This was determined using caspase-Glo 3/7 Assay Kit (Promega) and its activity was normalized to a number of viable cells as determined by MTT assay.

[2] = test system: non-transformed BJ cells depleted of p53 by shRNA-mediated knockdown; assay: BrdU incorporation and FACS analysis (cell cycle arrest), p53 knockdown; format: cell-based, human; settings: 2.5 and 5 μM, 24 h
Description: A: is output from a FACS analysis of isogenic-non-transformed, without (panels a-c) (WT) or with (panels d-f) shRNA-mediated knockdown of p53 (p53KD), and oncogene-transformed BJ cells (panels g-i), each treated with 0, 5 or 2.5 μM Compound 1 (a131) for 24 h. Cells were doubly stained with PI (horizontal axis) and BrdU (vertical axis). The BrdU-positive population in panels a-c are indicated as arrows. B: is a diagrammatic representation of an immunoblot analysis showing isogenic non-transformed (normal) and oncogene-transformed BJ cells (transformed) treated with Compound 1 (a131) at 0, 2.5 or 5 μM for 24 h or 48 h. Cells were harvested and total lysates were analysed by detecting p53 and p21. Antibodies raised against β-actin were used as an internal loading control. C and D are histograms showing the percentage of bromodeoxyuracil (BrdU)-positive non-transformed (normal) BJ cells. C: Cells were treated with Group 1 Compound 1 (a131) at 2.5 and 5 μM, Compound 23 (b36) at 2.5 and 5 μM, and Compound 21 (b35) at 5 μM, and Group 2 Compound 25 (a166) at 2.5 and 5 μM, for 24 h. Cells were doubly stained with propidium iodide (PI) and BrdU, and subjected to FACS analysis. The BrdU-positive population are plotted as bars. […]

[3] = test system: non-transformed normal BJ cells; assay: Time-lapsed live cell analysis of mitotic progression (GFP-Histone H2B); format: cell-based, human; settings: 2.5 μM, monitored every 10 min
Description: (§1) A: is a histogram showing isogenic non-transformed and oncogene-transformed BJ cells stably expressing GFP-tagged Histone H2B as a marker for chromosome segregation, treated with Compound 1 (a131) at 2.5 μM final concentration. Mitotic progression of these cells was monitored every 10 min. More than 100 cells per condition were quantified and classified into 3 groups: no, mild and severe mitotic defects with prolonged mitotic arrest, chromosome mis-segregation and failure in cytokinesis. […] The bars represent 5 μm in length. C: is a histogram showing quantification of defects in spindle formation and chromosome alignments (n>100 cells per condition).
(§2) Isogenic non-transformed and oncogene-transformed BJ cells stably expressing GFP-tagged Histone H2B as a marker for chromosome segregation were treated with Compound 1 at 2.5 μM final concentration. Mitotic progression of these cells was monitored every 10 min and images were acquired using a Super Resolution Microscope (Nikon) equipped with an iXon EM+ 885 EMCCD camera (Andor) mounted on a Nikon Eclipse Ti-E inverted microscope with a CFI Apo objective and a Stage Top Incubation with Digital CO2 mixer (Tokai). The images were processed with the NIS-Elements AR software. […]

[4] = test system: oncogene-transformed BJ cells; assay: as above; format: cell-based, human; settings: 2.5 μM, monitored every 10 min
Description: as §1, §2

SMILES: N#C/C(=C\c1cccc2cnccc12)c1c[nH]c2ccccc12 [Compound 1, (Z)-2-(1H-indol-3-yl)-3-(isoquinolin-5-yl)acrylonitrile]
- levels of cleaved PARP and caspase-3 [1]: markedly increased the levels of both cleaved PARP and caspase-3
- cell cycle arrest in p53-depleted cells [2]: ability of Compound 1 to induce cell cycle arrest was compromised
- mitotic defects [3]: only induced a short period of mitotic arrest with mild mitotic defects
- mitotic defects [4]: severe mitotic defects with prolonged mitotic arrest, chromosome mis-segregations and failure in cytokinesis
